In PubChem BioAssay (NCI):
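A five-concentration, 48-hour dose response in 96-well plates underlies each endpoint, interpolated linearly between surrounding concentrations. At the GI50, growth is halved. TGI: total growth inhibition.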

Columns and labels:
Experiment in all cases: NCI-60 cell line screen, 48 h
A549 NSCLC = test system: A549 NSCLC
NCI-H23 lung = test system: NCI-H23 lung
U251 CNS = test system: U251 CNS
SNB-19 CNS = test system: SNB-19 CNS
HCT-15 colon = test system: HCT-15 colon
HOP-62 NSCLC = test system: HOP-62 NSCLC
RXF 393 renal = test system: RXF 393 renal
MOLT-4 leukemia = test system: MOLT-4 leukemia
DU-145 prostate = test system: DU-145 prostate
MCF7 breast = test system: MCF7 breast

Row | Structure (SMILES) | TGI (A549 NSCLC) [µM] | TGI (NCI-H23 lung) [µM] | TGI (U251 CNS) [µM] | TGI (SNB-19 CNS) [µM] | TGI (HCT-15 colon) [µM] | TGI (HOP-62 NSCLC) [µM] | TGI (RXF 393 renal) [µM] | TGI (MOLT-4 leukemia) [µM] | GI50 (DU-145 prostate) [µM] | TGI (DU-145 prostate) [µM] | GI50 (MCF7 breast) [µM] | TGI (MCF7 breast) [µM] | GI50 (A549 NSCLC) [µM] | GI50 (NCI-H23 lung) [µM] | GI50 (U251 CNS) [µM] | GI50 (SNB-19 CNS) [µM] | GI50 (HCT-15 colon) [µM] | GI50 (HOP-62 NSCLC) [µM] | GI50 (MOLT-4 leukemia) [µM]
1 | COc1cc2c(cc1OC)C1C=NC(C(=O)O)(C2)c2ccccc21 (configuration not stated) | > 100 | > 100 | > 100 | > 100 | > 100 | > 100 | > 100 | > 100 | – | – | – | – | – | – | – | – | – | – | –
2 | O=S(=O)(O)C(O)/C=C/c1ccccc1 (configuration not stated) | > 100 | > 100 | > 100 | > 100 | > 100 | > 100 | > 100 | > 100 | – | – | – | – | – | – | – | – | – | – | –
3 | CN(C)CCNC(=O)c1cccc2nc3c(Cl)cccc3nc12 | > 35.6 | 20.8 | 30.5 | 57 | 34.6 | 26.3 | 16.6 | 10.4 | – | – | – | – | – | – | – | – | – | – | –
4 | COc1cc2c(c(OC)c1OC)-c1ccc(NCc3ccccc3)c(=O)cc1[C@@H](NC(C)=O)CC2 | > 100 | 54.9 | 11.8 | > 100 | > 48.4 | 16.9 | – | > 87.5 | 0.374 | 7.91 | 0.337 | 19.7 | 0.453 | 0.628 | 0.368 | 0.638 | 1.09 | 0.413 | 0.489
5 | Cc1cc(C)nc(NS(=O)(=O)c2ccc(NC(=O)c3cccc4c(=O)c5ccccc5[nH]c34)cc2)n1 | 51.2 | 33.4 | 32.4 | 80.7 | 46.3 | 56.7 | – | > 100 | – | – | – | – | – | – | – | – | – | – | –
6 | C#CC(C)(C)Oc1cc(O)c2c(=O)c3ccccc3n(C)c2c1 | > 100 | > 100 | > 100 | > 100 | > 100 | > 100 | > 100 | > 100 | – | – | – | – | – | – | – | – | – | – | –
7 | CCOc1ccc2nc(NC(=O)/C(CC(=O)CC(C3=C(O)c4ccccc4CC3=O)c3ccccc3)=N\O)sc2c1 (configuration not stated) | > 100 | > 100 | > 100 | > 100 | > 100 | – | > 100 | > 100 | – | > 100 | – | > 100 | – | – | – | – | – | – | –
8 | COc1cc([C@@H]2c3cc4c(cc3[C@@H](NC(=O)c3cccc([N+](=O)[O-])c3)C3COC(=O)[C@@H]32)OCO4)cc(OC)c1O (some centres not stated) | 1.72 | 1.11 | 1.26 | 14.1 | 4.31 | 0.121 | 9.97 | > 100 | – | – | – | – | – | – | – | – | – | – | –
9 | O=C1Oc2cc3c(c4cccc1c24)OCN(c1ccc(Cl)cc1)C3 | > 100 | > 100 | > 79.5 | > 100 | > 64.7 | > 100 | > 84.2 | 51.4 | – | – | – | – | – | – | – | – | – | – | –
10 | COC(=O)c1c(OC)cccc1C(=O)O | > 100 | > 100 | > 100 | > 100 | > 100 | > 100 | > 100 | > 100 | – | – | – | – | – | – | – | – | – | – | –
11 | O=C(O)c1cc(S(=O)(=O)N=NC=C2c3ccccc3N(O)c3ccccc32)ccc1O | > 100 | 53.3 | > 100 | > 100 | 21.2 | 37.5 | – | 45.1 | – | – | – | – | – | – | – | – | – | – | –
12 | S=C1NCCN1C1=Nc2ccccc2CO1 | > 100 | > 100 | > 100 | > 100 | > 100 | > 100 | – | > 100 | > 100 | > 100 | > 100 | > 100 | > 100 | > 100 | > 100 | > 100 | > 100 | > 100 | > 100
13 | CCCCCCCCCCCCCCC1OC(=O)c2ccccc21 (configuration not stated) | > 100 | > 100 | > 100 | > 100 | – | > 100 | > 100 | > 100 | – | – | – | – | – | – | – | – | – | – | –
14 | Cc1nc2nnc(C)n2c2c1C(=O)Nc1ccccc1N2 | > 100 | > 100 | > 100 | > 100 | – | > 100 | > 100 | > 100 | – | – | – | – | – | – | – | – | – | – | –
15 | CC1CCC[P+](Cc2ccccc2)(c2ccccc2)CC1 (configuration not stated) | > 100 | > 100 | > 100 | > 100 | > 100 | > 100 | > 100 | > 100 | – | – | – | – | – | – | – | – | – | – | –
16 | O=c1[nH]c(=O)n(C2CC(O)C(CO)O2)cc1C#Cc1c(F)c(F)c(F)c(F)c1F (configuration not stated) | > 100 | > 100 | > 100 | > 100 | > 100 | > 100 | – | > 100 | – | – | – | – | – | – | – | – | – | – | –
17 | CC1=CCCC(OC(N)=O)C1 (configuration not stated) | > 100 | > 100 | > 100 | > 100 | > 100 | > 100 | > 100 | > 100 | – | – | – | – | – | – | – | – | – | – | –
18 | CCC1CCC2CCCC(C)N12 (configuration not stated) | > 100 | > 100 | > 100 | > 100 | > 100 | > 100 | – | > 100 | – | – | – | – | – | – | – | – | – | – | –
19 | O=C1/C(=C/c2ccccc2)CN(C(=O)Oc2ccc(Cl)cc2)C/C1=C\c1ccccc1 | 16.6 | 11.1 | 2.97 | 10.1 | 2.73 | 14.7 | 4.14 | 8.63 | – | – | – | – | – | – | – | – | – | – | –
20 | OCCNCO | > 100 | > 100 | > 100 | > 100 | > 100 | > 100 | > 100 | > 100 | – | – | – | – | – | – | – | – | – | – | –
21 | COc1ccc(N=Cc2cc(OC)c(OC)c(OC)c2)cc1 | > 100 | > 100 | > 100 | > 100 | > 100 | > 100 | > 100 | > 100 | – | – | – | – | – | – | – | – | – | – | –
22 | O=C1CC[C@H]2CNC(=O)C[C@H]2C1 | > 100 | > 100 | > 100 | > 100 | > 100 | > 100 | > 100 | > 100 | – | – | – | – | – | – | – | – | – | – | –
23 | COc1ccc(-n2cc(-c3ccc(OC)c(OC)c3)[nH]c2=S)cc1Cl | > 100 | > 100 | > 100 | > 100 | > 100 | > 100 | – | > 100 | > 100 | > 100 | > 100 | > 100 | > 100 | > 100 | 41.1 | > 100 | > 100 | 30.2 | 77.4
24 | CC(=O)/C=C/c1cccc(N=S)c1 | > 59.1 | > 92.7 | 20.8 | > 87.5 | 31.9 | > 100 | 53.8 | > 75.2 | – | – | – | – | – | – | – | – | – | – | –
